Assay results published in patent publication US20190367963A1, “METHOD FOR SELECTING ODOR CONTROL SUBSTANCE” (KAO CORPORATION, priority 2017, published 2019).

Assays:
OR2W1 = biological target: T1, OR2W1 (Homo sapiens, UniProt Q9Y3N9); assay: Luciferase reporter gene assay of OR2W1 expressing HEK293 cells; assay type: cell-based
T1 construct: expressed in transfected cells; host or cells: HEK293
T1 sequence (Q9Y3N9 1-320): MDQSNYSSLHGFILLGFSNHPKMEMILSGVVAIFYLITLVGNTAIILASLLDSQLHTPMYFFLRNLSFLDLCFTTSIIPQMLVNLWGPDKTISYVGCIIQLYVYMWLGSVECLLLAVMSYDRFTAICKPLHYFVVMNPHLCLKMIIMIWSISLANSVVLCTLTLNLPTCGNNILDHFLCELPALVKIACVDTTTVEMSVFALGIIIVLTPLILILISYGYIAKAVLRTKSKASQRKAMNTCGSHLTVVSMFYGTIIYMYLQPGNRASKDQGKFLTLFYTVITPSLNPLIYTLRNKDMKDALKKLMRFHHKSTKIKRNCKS
Excerpt: (§1) Based on the sequence information registered in GenEank, genes encoding 427 human olfactory receptors including variants were each cloned. Each gene was cloned by PCR using human genomic DNA female (G1521: Promega) as the template. Each gene amplified by PCR was recombined downstream of a Flag-Rho tag sequence on a pME18S vector.
(§2) A gene encoding human RTP1S was inserted into the EcoRI/XhoI site of a pME18S vector.
427 HEK293 cells differently expressing one of 427 human olfactory receptors were produced. Reaction solutions having compositions shown in Table 1 were prepared and were left to stand in a clean bench for 15 minutes. The reaction solutions were added to each well of a multi-well plate (384 or 96-well plate, BioCoat), and HEK293 cells were then seeded. In the 384-well plate, 4.4 μL of a reaction solution and 40 μL of HEK293 cells (20×10^4 cells/cm^2) were added. In the 96-well plate, 10 μL of a reaction solution and 90 μL of HEK293 cells (3×10^5 cells/cm^2) were added. The cells were cultured in an incubator maintained at 37° C. and 5% CO2 for 24 hours. As a control, cells not expressing an olfactory receptor (mock) were prepared.
The olfactory receptor expressed in HEK293 cells interact with endogenous cellular Gas to activate adenylate cyclase and thereby increases the intracellular cAMP level. The measurement of the response of cells to an odorant, test substance, or antagonist in the present invention was performed by a luciferase reporter gene assay monitoring the increase in the intracellular cAMP level as a light emission value derived from a firefly luciferase gene (fluc2P-CRE-hygro). A Renilla luciferase gene fused to downstream of a CMV promoter (hRluc-CMV) was simultaneously transfected and was used as an internal standard for calibrating the error in gene transfer efficiency or the number of cells. The luciferase activity was measured from 2.5 to 4 hours after stimulation with an odorant or a test substance with a Dual-Glo™ luciferase assay system (Promega), following user's manual thereof. The value fLuc/hRluc was calculated by dividing the light emission value derived from firefly luciferase by the light emission value derived from Renilla luciferase. “Fold increase” as an indicator of the responsiveness of an olfactory receptor to stimulation with a test substance, and “odor response” (%) as an indicator of the activity level of an antagonist to the olfactory receptor, were calculated according to the following formula: […]
X: fLuc/hRluc, induced by stimulation with a test substance alone, and
Y: fLuc/hRluc, without stimulation with a test substance.
L-Arginine and 1-histidine were used as test substances. […]

[1] = system: 427 human olfactory receptors; assay: Luciferase reporter gene assay of 427 human olfactory receptors expressed in HEK293 cells; assay type: cell-based; conditions: test substance 10 mM
Excerpt: as §1, §2
427 HEK293 cells differently expressing one of 427 human olfactory receptors were produced. Reaction solutions having compositions shown in Table 1 were prepared and were left to stand in a clean bench for 15 minutes. The reaction solutions were added to each well of a multi-well plate (384 or 96-well plate, BioCoat), and HEK293 cells were then seeded. […]
The olfactory receptor expressed in HEK293 cells interact with endogenous cellular Gas to activate adenylate cyclase and thereby increases the intracellular cAMP level. […] The luciferase activity was measured from 2.5 to 4 hours after stimulation with an odorant or a test substance with a Dual-Glo™ luciferase assay system (Promega), following user's manual thereof. The value fLuc/hRluc was calculated by dividing the light emission value derived from firefly luciferase by the light emission value derived from Renilla luciferase. […]

[2] = Sensory examination: PEA detection threshold value before and after nasal administration; assay type: in vivo; conditions: 10 mM in saline, nasal spray, human examinees, one minute after spraying
Experimental: The action of 1-arginine, which is an OR2W1 selective ligand, on olfaction was evaluated by sensory examination. Three samples, saline (Otsuka Pharmaceutical Co., Ltd.), saline aqueous solution containing 10 mM 1-arginine, and saline aqueous solution containing 10 mM 1-histidine, were prepared and filled into nasal sprays (KT110-102, AS ONE Corporation). […] PEA aqueous solutions with 11 different concentrations from 0.001 to 100 WA were prepared as test solutions, and 3 mL of each of the solutions was respectively added to 20-mL glass vials (Maruemu Corporation).
The experiment was blinded to both an examiner and an examinee. The examiner set the spray spout in the nasal cavity of the examinee as deep as possible and sprayed once. The amount of liquid ejected thereby was about 100 to 200 μL. […] The concentration that gave a correct answer three consecutive times after answering an incorrect answer was determined as the detection threshold value. […] Before and after the nasal administration of a sample, detection threshold values of an examinee to PEA were measured. The rate of change in the threshold value was determined by calculating (threshold value concentration before sample nasal administration)/(threshold value concentration after sample nasal administration).

[3] = Sensory examination: odor intensity (labeled magnitude scale) on simultaneous exposure to odorant and test substance; assay type: in vivo, human; conditions: test substance 10 mM in saline, ultrasonic nebulizer, LMS; for odor intensity of HCA used together with test substance: HCA 0.1 mM; for odor intensity of PEA used together with test substance: PEA 0.1 mM
Experimental: Whether the odor of an odorant was enhanced or not by simultaneous exposure to the odorant and 1-arginine was investigated by comparing with exposure to the odorant alone. PEA or hexyl cinnamic aldehyde (HCA) was used as the odorant. The odorant was added at a final concentration of 0.1 mM to a saline aqueous solution with 1-arginine (10 mM) and a saline aqueous solution with 1-histidine (10 mM) as a control. The resulting solutions were sprayed to an examinee for inhaling using an ultrasonic nebulizer (NE-U07: OMRON Corporation, atomization particle diameter: 1 to 8 μm (80% of total volume particle diameter distribution)) with a spray amount of about 170 μL (for about 20 seconds) at most, and odor intensity was evaluated.
The odor intensity was evaluated according to the method of Green, et al, (Chemical senses, 1996, 21: 323-34) with the labeled magnitude scale (LMS) shown below. That is, assuming the full scale length was 100%, labels were set to the following positions: Barely detectable: 1.4%, Weak: 6.1%, Moderate: 17.2%, Strong: 35.4%, Very strong: 53.3%, Strongest imaginable: 100%.

| Compound | response of OR2W1 expressing cells (OR2W1) | responses of 427 olfactory receptors [1] | PEA detection threshold value after nasal administration [2] | odor intensity of HCA used together with test substance [3] | odor intensity of PEA used together with test substance [3] |
| --- | --- | --- | --- | --- | --- |
| N=C(N)NCCC[C@H](N)C(=O)O [1-arginine, L-Arginine] | responded to 1-arginine concentration dependently | no olfactory receptors other than OR2W1 responded | decreased in statistically significant manner | enhanced in statistically siggificant manner | enhanced in statistically siggificant manner |
| N[C@@H](Cc1c[nH]cn1)C(=O)O [1-histidine, L-Histidine] | did not respond | did not respond | not observed | the effect of enhancing the odor intensity was not observed | the effect of enhancing the odor intensity was not observed |
| CCCCCCC(C=O)=Cc1ccccc1 [HCA, 2-(phenylmethylidene)octanal] | did not respond |  |  |  |  |
| OCCc1ccccc1 [PEA, 2-phenylethanol] | responded |  |  |  |  |
